Results reported in patent publication US20040152903A1, “6-chloro-3-pyridylmethylpropylamine derivatives, preparation process thereof and bactericides” (priority 2004, published 2004).

Tested on: wheat powdery mildew
Test: Permeable mobility fungicidal effect test in leaf section of wheat powdery mildew
Format: in vivo
Conditions: length of non-contracted area relative to compound (m-2); 200 mg/l, 0.5 μl applied to wheat leaf (Abukumawase)
Method: (Permeable Mobility Fungicidal Effect Test in Leaf Section of Wheat Powdery Mildew) In the test example 4, permeable mobility fungicidal effect test was performed on the leaf section of wheat powdery mildew with regard to the compounds I-1 to 27 according to the present invention and the comparative compounds (a) to (d), and (m-1) to (m-3) with the method described later. <Test Method> The compound in the form of a wettable powder obtained by Formulation 2 or the like was diluted and suspended with water to a predetermined concentration (200 mg/l), and 0.5 μl of the suspension was applied to a 2 to 3 cm leaf portion from the root of the three leaves of the 4th to 4.5th leaf period wheat (variety: Abukumawase) cultured by using a square plastic pot (size: 6.4 cm×6.4 cm). After these wheat leaves were subject to still standing in a glass house (temperature: 20 to 24° C., relative humidity: 20 to 70 RH) for one day, the spores of wheat powdery mildew were inoculated over the leaves by sprinkling the same with a brush from an infected leaf, a disease was contracted in the same glass house. The length of a non-contracted area generated from the applied portion to the direction of the leaf top was measured, and a relative mobility to the compound (m-2) was calculated with the following calculation […] by using the comparative compound (m-2) as a standard compound. Relative mobility=(Length of non-contracted area in each chemical section (cm)/Length of non-contracted area of compound (m-2) (cm)) (Equation 4)

Row | SMILES | Relative Mobility
1 | CC(Cc1ccc(C(F)(F)F)c(F)c1F)CN(C)Cc1ccc(Cl)nc1 (centres unmarked) [Compound I-10] | 3
2 | CC(Cc1ccc2c(c1)OC(F)(F)O2)CN(C)Cc1ccc(Cl)nc1 (centres unmarked) [Compound I-24] | 6
